In this data set the test system is P388/0 tumor cells. Nature of the data set: Lymphocytic Leukemia P388/0 Test. It is filed as in vivo, CD2-F₁ mice. The following applies: for LD₂₀: CD2-F₁ mice, intraperitoneally on days 1, 5 and 9; for 30 DAY Survivors: at the optimal dose, survivors out of 6 animals per dose level group; for T/C x 100% (Excluding 30 Day Survivors): ratio of median survival time treated/control at the optimal dose, i.p. days 1, 5, 9, criterion for activity T/C x 100 ≧120%. An excerpt: Methods for evaluating the antitumor activity of these compounds are essentially those used in the Tumor Panel by the Development Therapeutics Program, Division of Cancer Treatment, National Cancer Institute, A. Goldin, et al., Methods in Cancer Research, Vol. XVI, p. 165, Academic Press (1979). Some modifications, in dose level and schedule have been made to increase the testing efficiency.
CD2-F₁ mice, of the same sex weighing within 20±3g, are used for this test. Control and test animals are injected intraperitoneally with a suspension of 10⁶ viable P388/0 tumor cells on day 0. In each test several dose levels which bracket the LD₂₀ for the compound are evaluated; each dose level group contains 6 animals. The test compounds are prepared either in physiologic saline containing 0.05% Tween 80 or distilled water containing 5% dextrose and are administered intraperitoneally on days, 1, 5, and 9 relative to tumor implant. Doses are on a mg/kg basis according to individual animals' body weights. the day of death for each animal is recorded, the median identified for each group and the ratios of median survival time for treated (T)/control (C) groups are calculated. The criterion for activity is T/C x 100 ≧120%.

With `CC(CO)(CO)NCc1cc2oc3ccccc3c2c2ccccc12` [Example 3B, 2-((Benzo[b]naphtho[1,2-d]furan-5-ylmethyl)amino)-2-methyl-1,3-propanediol methanesulfonate], the LD₂₀ was 10 mg/kg, the “30 DAY Survivors” value is listed as 2/6 and the “T/C x 100% (Excluding 30 Day Survivors)” value is recorded as “+230%”.

`CC(CO)(CO)NCc1cc2c3ccccc3sc2c2ccccc12` [Example 1, 2-((Benzo[b]naphtho [2,1-d]thiophen-5-ylmethyl)amino)-2-methyl-1,3-propanediol methanesulfonate]: the LD₂₀ came out at 35 mg/kg, the “30 DAY Survivors” value is 1/6 and the “T/C x 100% (Excluding 30 Day Survivors)” value is “+210%”.

With “2-Methyl-2-[[(7-methyl-7-H-benzo[c]carbazol-10-yl) methyl]amino-1,3-propanediol hydrochloride 3/10 hydrate [Example 4C]”, the LD₂₀ was 55 mg/kg, the “30 DAY Survivors” value is on record as 6/6 and the “T/C x 100% (Excluding 30 Day Survivors)” value is given as “no deaths”.

Regarding `CC(CO)(CO)NCc1c2ccccc2cc2c1oc1ccccc12` [Example 2B, 2-((Benzo[b]naphtho[2,3-d]furan-6-ylmethyl)amino]2-methyl-1,3-propanediol methanesulfonate], the LD₂₀ was 125 mg/kg, the “30 DAY Survivors” value is recorded as 1/6 and the “T/C x 100% (Excluding 30 Day Survivors)” value is “+204%”.

Consider `CC(CO)(CO)NCc1cccc2cc3c(cc12)oc1ccccc13` [Example 6B, 2-[(Benzo[b]naphthol[2,3-d]furan-7-ylmethyl)amino]-2-methyl-1,3-propanediol methanesulphonate 1/4 hydrate], for which the LD₂₀ amounted to 35 mg/kg, the “30 DAY Survivors” value is listed as 0/6 and the “T/C x 100% (Excluding 30 Day Survivors)” value is “+210%”.

As to `CC(CO)(CO)NCc1cc2c3ccccc3oc2c2ccccc12` [Example 5B], the LD₂₀ was 100 mg/kg, the “30 DAY Survivors” value is given as 4/6 and the “T/C x 100% (Excluding 30 Day Survivors)” value is on record as “+255%”.

The record behind these values is patent publication EP0182608B1, “Polycyclic compounds, their preparation and formulations containing them” (priority 1984, dated 1986).
